According to patent publication US6399583B1, “Hybrid anthracyclines from genetically engineered streptomyces galilaeus strains, process for production and uses thereof” (Galilaeus Oy, priority 1998, dated 2002):

Experiments:
[1] = system: MES-SA/D×5 uterine sarcoma cells (doxorubicin-resistant, MDR); conditions: relative to MES-SA; Harker and Sikic, 1985; cited from earlier work
[2] = system: SK-N-MC; test: Cytotoxicity assay, ATP detection, SK-N-MC; format: cell-based; conditions: SK-N-MC cells in vitro; read-out: ED50 SK-N-MC
[3] = system: L1210 mouse lymphocytic leukemia cells; test: Flow cytometry (mode of action), cell cycle phases; format: cell-based; conditions: for G1 (%) / G2 (%) / S + M (%) / Cells (1000/ml): L1210 cells, 24 h incubation; for G1 (%): percentage of cells in phase G1; for G2 (%): percentage of cells in phase G2; for S + M (%): percentage of cells in phases S + M; for Cells (1000/ml): starting cell number 46000 cells/ml
Protocol: L1210 mouse lymphocytic leukemia cells growing in suspension culture were maintained at exponential growth in Dulbecco's modified Eagle's medium with 4.5 g/l glucose and 10% FBS, at 37° C. with 5% CO2. The experiments were started by adding the ethanol-dissolved anthracyclines, in amounts yielding to the appropriate final concentrations, to 25 cm^2 cell culture flasks. After the ethanol had evaporated, 5 ml of an approximately 50 000 cells per ml suspension was added to the flasks. Flow cytometric analysis was made of the original cell suspension and after one, two and three days incubation with or without the drugs.
Cells were prepared for flow cytometric DNA analysis according to the method of Vindelov et al. (1985). The analysis was performed with an Epics XL flow cytometer (Coulter Corporation, Miami, Fla.). Samples were illuminated with a […] air-cooled argon ion laser (488 nm) and the fluorescence of propidium iodide was detected through 620-nm band pass filter. The number of cells in each sample was separately counted by adding an internal calibrator (50 μl of a solution containing 1×10^6 Fluoresbrite beads/ml) to 50 μl of cell suspension.
Based on the flow cytometric studies, the cell cycle phases for the cells studied could be detected. Phase G1 is the stage for RNA and protein synthesis, but not for replication. Transition from phase G1 to phase S means the initiation of replication, and the phase will last until all of the DNA has been replicated. The period from phase S up to mitosis (M) is phase G2.

[4] = system: B16-F0 melanoma; test: Cytotoxicity assay, ATP detection, B16-F0; format: cell-based, mouse; conditions: Mus musculus, B16F0; B16-F0 cells in vitro; read-out: ED50 B16-F0
Protocol: (§1) The cytotoxicity tests were performed in 96-well microtiter plates (sterile white plates with clear bottom, Corning Costar Corporation, Cambridge, Mass., USA). The anthracyclines were pipetted into the plates in 10 μl of ethanol, pure ethanol was used for control plates. Daunorubicin and aclarubicin were used as positive controls. When the ethanol had evaporated, the cells were seeded into the plates in 100 μl of appropriate medium. The number of cells seeded per well was 2500 with MES-SA, 3000 with MES-SA/D×5, 3000 with LL/2, 2000 with B16-F0 and B16-F1, 2000 with KLN-205 and 8000 with MLTC-1. The ATP content of the cells was measured after incubating the cells for three days at 37° C. with 5% CO2.
(§2) The growth medium was removed by turning the plates over, and 200 μl of ATP extraction reagent, Somalyze, were added to the wells. The plates were then incubated for 30 minutes at room temperature. The ATP measurement was performed with Luminoskan luminometer (Labsystems Oy, Helsinki, Finland) at 22° C. 20 μl of ATP monitoring reagent containing luciferin and luciferase was dispensed, and an integral measurement of 10 s with 2 s lag time was performed for each well. All reagents used were supplied by Bio-Orbit Oy, Turku, Finland.
(§3) The direct luminometer output (in relative light units, RLUS) was used to calculate the cytotoxic effect. This light signal is directly proportional to the amount of […] in a wide range (determined with Bio-Orbit ATP standard, data not shown). On the other hand, the amount of ATP is directly proportional to the amount of living cells (Kangas et al., 1984). The results are expressed as percentages of the control value of untreated cells. An IC50 value (the drug concentration resulting to an ATP signal of 50% of the untreated control signal) was graphically estimated from the % of control vs. drug concentration plot.
(§4) H075-4a was also tested with several mouse cell lines in vitro (all were purchased from ATCC, Rockville, Md., USA): Lewis lung carcinoma (LL/2) (CRL-1642), B16-F0 melanoma (CRL-6322), B16-F1 melanoma (CRL-6323), KLN-205 lung squamous cell carcinoma (CRL-1453) and MLTC-1 leydig cell tumor (CRL-2065) using daunomycin, aclarubicin and H075-1a (MA 144U1) as references.
(§5) All cells grew as monolayers and were cultured at 37° C. with 5% CO2 according to ATCC standard instructions for each cell line: LL/2 in Dulbecco's modified Eagle's medium with 4.5 g/l glucose and 10% FCS, B16-F0 and B16-F1 in MEM (Eagle) in Earle's BSS with non-essential amino acids and 10% FCS, KLN-205 in MEM (Eagle) in Earle's BSS with non-essential amino acids and 10% FCS, MLTC-1 in RPMI 1640 with 25 mM HEPES and 10% FBS. All media were purchased from Gibco BRL, the serum was Gibco BRL Foetal Bovine Serum. […]

[5] = system: MES-SA human uterine sarcoma cells; test: Cytotoxicity assay, luminescence ATP detection, MES-SA; format: cell-based; conditions: Homo sapiens, 72 h, three days incubation, ATP content, highest concentration 10^-5 M, read-out: ED50 (nM) MES-SA
Protocol: (§6) The cytotoxicities of the new anthracyclines were tested in vitro with two cell lines: human uterine sarcomas MES-SA (CRL-1976; American Type Culture Collection (ATCC), Rockville, Md., USA) and MES-SA/D×5 (CRL-1977; ATCC, Rockville, Md., USA). MES-SA/D×5 has been developed by growing MES-SA cells in increasing concentrations of doxorubicin (Harker and Sikic, 1985).
(§7) Monolayer cultures were grown in McCoy's 5A medium with L-glutamine (Gibco BRL) supplemented with 10% FBS (Foetal Bovine Serum, Gibco BRL). No antibiotics were added. As the resistance is stable for at least 20 passages, the MES-SA/D×5 cells were grown without anthracycline selection (Harker and Sikic, 1985). Cells were maintained at 37° C. with 5% CO2 and subcultured every 3-5 days.
as §1, §2, §3

[6] = system: KLN-205 lung squamous cell carcinoma; test: Cytotoxicity assay, ATP detection, KLN-205; format: cell-based, mouse; conditions: Mus musculus; KLN-205 cells in vitro; read-out: ED50 KLN-205
Protocol: as §1, §2, §3, §4, §5

[7] = system: B16-F1 melanoma; test: Cytotoxicity assay, ATP detection, B16-F1; format: cell-based, mouse; conditions: Mus musculus; B16-F1 cells in vitro; read-out: ED50 B16-F1
Protocol: as §1, §2, §3, §4, §5

[8] = system: MES-SA/D×5 uterine sarcoma cells (doxorubicin-resistant, MDR); test: Cytotoxicity assay, luminescence ATP detection, MES-SA/D×5; format: cell-based, human; conditions: Homo sapiens, 72 h; MES-SA/D×5 cells, three days incubation, ATP content; highest concentration 10^-5 M; read-out: ED50 (nM) MES-SA/D × 5
Protocol: as §6, §7, §1, §2, §3

[9] = system: MLTC-1 leydig cell tumor; test: Cytotoxicity assay, ATP detection, MLTC-1; format: cell-based, mouse; conditions: Mus musculus, Leydig; MLTC-1 cells in vitro; read-out: ED50 MLTC-1
Protocol: as §1, §2, §3, §4, §5

[10] = system: Lewis lung carcinoma (LL/2); test: Cytotoxicity assay, ATP detection, LL/2; format: cell-based, mouse; conditions: Mus musculus; LL/2 cells in vitro; read-out: ED50 LL/2
Protocol: as §1, §2, §3, §4, §5

Compound | resistance of MES-SA/D×5 variant to doxorubicin [1] [fold] | EC50 [2] [nM] | G1 (%) ([3]; concentration 1 × 10^−8M) | G2 (%) ([3]; concentration 1 × 10^−8M) | S + M (%) ([3]; concentration 1 × 10^−8M) | Cells (1000/ml) ([3]; concentration 1 × 10^−8M) | G1 (%) ([3]; concentration 3.3 × 10^−8M) | G2 (%) ([3]; concentration 3.3 × 10^−8M) | S + M (%) ([3]; concentration 3.3 × 10^−8M) | Cells (1000/ml) ([3]; concentration 3.3 × 10^−8M) | cell cycle phase in which cells are arrested ([3]; flow cytometric DNA analysis) | EC50 [4] [nM] | EC50 [5] [nM] | EC50 [6] [nM] | EC50 [7] [nM] | EC50 [8] [nM] | EC50 [9] [nM] | EC50 [10] [nM]
COc1cccc2c1C(=O)c1c(O)c3c(c(O)c1C2=O)C[C@@](O)(C(=O)CO)C[C@@H]3O[C@H]1C[C@H](N)[C@H](O)[C@H](C)O1 [doxorubicin] | 100 | – | – | – | – | – | – | – | – | – | – | – | – | – | – | – | – | –
CC[C@@]1(O)C[C@H](O[C@H]2C[C@H](N(C)C)[C@H](O[C@H]3C[C@H](O)[C@H](O[C@H]4CCC(=O)[C@H](C)O4)[C@H](C)O3)[C@H](C)O2)c2c(cc3c(c2O)C(=O)c2c(O)cccc2C3=O)[C@H]1C(=O)OC [Aclarubicin] | – | 9 | 43 | 14 | 43 | 101 1000/ml | 47 | 29 | 24 | 78 1000/ml | phase G1 | 3 | 2 | 12 | 4 | 12 | 70 | 5
